Data as given in ChEMBL document CHEMBL2057188, “Hybridizing ability and nuclease resistance profile of backbone modified cationic phosphorothioate oligonucleotides” (Bioorg Med Chem, 2012).

Tests used:
Format in all cases: nucleic-acid assay
[1] = tested on: Nucleic Acid; test: (§1) DNA hybridizing activity at single stranded RNA assessed as thermal stability of duplexes formed between compound and complimentary ssRNA by measuring change in melting temperature at 4 uM in presence of 10 mM pH 7.2 sodium phosphate buffer containing 100 mM NaCl by UV based melting experiment relative to untreated control
[2] = tested on: Nucleic Acid; test: DNA hybridizing activity at single stranded DNA assessed as thermal stability of duplexes formed between compound and complimentary ssDNA by measuring melting temperature at 4 uM in presence of 10 mM pH 7.2 sodium phosphate buffer containing 100 mM NaCl by UV based melting experiment
[3] = tested on: Nucleic Acid; test: DNA hybridizing activity at single stranded RNA assessed as thermal stability of duplexes formed between compound and complimentary ssRNA by measuring melting temperature at 4 uM in presence of 10 mM pH 7.2 sodium phosphate buffer containing 100 mM NaCl by UV based melting experiment
[4] = tested on: Nucleic Acid; test: (§2) DNA hybridizing activity at 22 bp double stranded DNA assessed as thermal stability of duplexes formed between compound and complimentary dsDNA by measuring melting temperature at 1.5 uM in presence of 7 mM pH 5.5 sodium phosphate buffer containing 140 mM K, 10 mM MgCl2 by UV based melting experiment
[5] = tested on: Nucleic Acid; test: as §2, with “measuring change in” for “measuring”
[6] = tested on: Nucleic Acid; test: as §1, with “DNA” for “RNA”, “ssDNA” for “ssRNA”

Row | Compound | ΔTm [1] [°C] | Tm [2] [°C] | Tm [3] [°C] | Tm [4] [°C] | ΔTm [5] [°C] | ΔTm [6] [°C]
1 | Cc1cn([C@H]2C[C@H](OP(=O)(O)OC[C@H]3O[C@@H](n4cc(C)c(=O)[nH]c4=O)C[C@@H]3OP(=O)(O)OC[C@H]3O[C@@H](n4cc(C)c(=O)[nH]c4=O)C[C@@H]3O[P@](=O)(OC[C@H]3O[C@@H](n4cc(C)c(=O)[nH]c4=O)C[C@@H]3OP(=O)(O)OC[C@H]3O[C@@H](n4cc(C)c(=O)[nH]c4=O)C[C@@H]3OP(=O)(O)OC[C@H]3O[C@@H](n4cc(C)c(=O)[nH]c4=O)C[C@@H]3OP(=O)(O)OC[C@H]3O[C@@H](n4ccc(N)nc4=O)C[C@@H]3OP(=O)(O)OC[C@H]3O[C@@H](n4ccc(N)nc4=O)C[C@@H]3OP(=O)(O)OC[C@H]3O[C@@H](n4ccc(N)nc4=O)C[C@@H]3OP(=O)(O)O)SCCN3CCNCC3)[C@@H](COP(=O)(O)O[C@H]3C[C@H](n4ccc(N)nc4=O)O[C@@H]3COP(=O)(O)O[C@H]3C[C@H](n4ccc(N)nc4=O)O[C@@H]3COP(=O)(O)O[C@H]3C[C@H](n4ccc(N)nc4=O)O[C@@H]3CO)O2)c(=O)[nH]c1=O | -2 | 40 | 44 | 24 | -2 | -2
2 | Cc1cn([C@H]2C[C@H](OP(=O)(O)OC[C@H]3O[C@@H](n4cc(C)c(=O)[nH]c4=O)C[C@@H]3OP(=O)(O)OC[C@H]3O[C@@H](n4cc(C)c(=O)[nH]c4=O)C[C@@H]3O[P@](=O)(OC[C@H]3O[C@@H](n4cc(C)c(=O)[nH]c4=O)C[C@@H]3OP(=O)(O)OC[C@H]3O[C@@H](n4cc(C)c(=O)[nH]c4=O)C[C@@H]3OP(=O)(O)OC[C@H]3O[C@@H](n4cc(C)c(=O)[nH]c4=O)C[C@@H]3OP(=O)(O)OC[C@H]3O[C@@H](n4ccc(N)nc4=O)C[C@@H]3OP(=O)(O)OC[C@H]3O[C@@H](n4ccc(N)nc4=O)C[C@@H]3OP(=O)(O)OC[C@H]3O[C@@H](n4ccc(N)nc4=O)C[C@@H]3OP(=O)(O)O)SCCCN3CCNCC3)[C@@H](COP(=O)(O)O[C@H]3C[C@H](n4ccc(N)nc4=O)O[C@@H]3COP(=O)(O)O[C@H]3C[C@H](n4ccc(N)nc4=O)O[C@@H]3COP(=O)(O)O[C@H]3C[C@H](n4ccc(N)nc4=O)O[C@@H]3CO)O2)c(=O)[nH]c1=O | -3 | 41 | 43 | 23 | -3 | -1
3 | Cc1cn([C@H]2C[C@H](OP(=O)(O)OC[C@H]3O[C@@H](n4cc(C)c(=O)[nH]c4=O)C[C@@H]3OP(=O)(O)OC[C@H]3O[C@@H](n4cc(C)c(=O)[nH]c4=O)C[C@@H]3O[P@](=O)(OC[C@H]3O[C@@H](n4cc(C)c(=O)[nH]c4=O)C[C@@H]3OP(=O)(O)OC[C@H]3O[C@@H](n4cc(C)c(=O)[nH]c4=O)C[C@@H]3OP(=O)(O)OC[C@H]3O[C@@H](n4cc(C)c(=O)[nH]c4=O)C[C@@H]3OP(=O)(O)OC[C@H]3O[C@@H](n4ccc(N)nc4=O)C[C@@H]3OP(=O)(O)OC[C@H]3O[C@@H](n4ccc(N)nc4=O)C[C@@H]3OP(=O)(O)OC[C@H]3O[C@@H](n4ccc(N)nc4=O)C[C@@H]3OP(=O)(O)O)SCCCCCN)[C@@H](COP(=O)(O)O[C@H]3C[C@H](n4ccc(N)nc4=O)O[C@@H]3COP(=O)(O)O[C@H]3C[C@H](n4ccc(N)nc4=O)O[C@@H]3COP(=O)(O)O[C@H]3C[C@H](n4ccc(N)nc4=O)O[C@@H]3CO)O2)c(=O)[nH]c1=O | -4 | 39 | 42 | 24 | -2 | -3
4 | Cc1cn([C@H]2C[C@H](OP(=O)(O)OC[C@H]3O[C@@H](n4cc(C)c(=O)[nH]c4=O)C[C@@H]3OP(=O)(O)OC[C@H]3O[C@@H](n4cc(C)c(=O)[nH]c4=O)C[C@@H]3O[P@](=O)(OC[C@H]3O[C@@H](n4cc(C)c(=O)[nH]c4=O)C[C@@H]3OP(=O)(O)OC[C@H]3O[C@@H](n4cc(C)c(=O)[nH]c4=O)C[C@@H]3OP(=O)(O)OC[C@H]3O[C@@H](n4cc(C)c(=O)[nH]c4=O)C[C@@H]3OP(=O)(O)OC[C@H]3O[C@@H](n4ccc(N)nc4=O)C[C@@H]3OP(=O)(O)OC[C@H]3O[C@@H](n4ccc(N)nc4=O)C[C@@H]3OP(=O)(O)OC[C@H]3O[C@@H](n4ccc(N)nc4=O)C[C@@H]3OP(=O)(O)O)SCCCCCCN)[C@@H](COP(=O)(O)O[C@H]3C[C@H](n4ccc(N)nc4=O)O[C@@H]3COP(=O)(O)O[C@H]3C[C@H](n4ccc(N)nc4=O)O[C@@H]3COP(=O)(O)O[C@H]3C[C@H](n4ccc(N)nc4=O)O[C@@H]3CO)O2)c(=O)[nH]c1=O | -5 | 37 | 41 | 23 | -3 | -5
5 | Cc1cn([C@H]2C[C@H](OP(=O)(O)OC[C@H]3O[C@@H](n4cc(C)c(=O)[nH]c4=O)C[C@@H]3OP(=O)(O)OC[C@H]3O[C@@H](n4cc(C)c(=O)[nH]c4=O)C[C@@H]3O[P@](=O)(OC[C@H]3O[C@@H](n4cc(C)c(=O)[nH]c4=O)C[C@@H]3OP(=O)(O)OC[C@H]3O[C@@H](n4cc(C)c(=O)[nH]c4=O)C[C@@H]3OP(=O)(O)OC[C@H]3O[C@@H](n4cc(C)c(=O)[nH]c4=O)C[C@@H]3OP(=O)(O)OC[C@H]3O[C@@H](n4ccc(N)nc4=O)C[C@@H]3OP(=O)(O)OC[C@H]3O[C@@H](n4ccc(N)nc4=O)C[C@@H]3OP(=O)(O)OC[C@H]3O[C@@H](n4ccc(N)nc4=O)C[C@@H]3OP(=O)(O)O)SCCCN)[C@@H](COP(=O)(O)O[C@H]3C[C@H](n4ccc(N)nc4=O)O[C@@H]3COP(=O)(O)O[C@H]3C[C@H](n4ccc(N)nc4=O)O[C@@H]3COP(=O)(O)O[C@H]3C[C@H](n4ccc(N)nc4=O)O[C@@H]3CO)O2)c(=O)[nH]c1=O | -3 | 40 | 43 | 24 | -2 | -2
6 | Cc1cn([C@H]2C[C@H](OP(=O)(O)OC[C@H]3O[C@@H](n4cc(C)c(=O)[nH]c4=O)C[C@@H]3OP(=O)(O)OC[C@H]3O[C@@H](n4cc(C)c(=O)[nH]c4=O)C[C@@H]3O[P@@](=O)(OC[C@H]3O[C@@H](n4cc(C)c(=O)[nH]c4=O)C[C@@H]3OP(=O)(O)OC[C@H]3O[C@@H](n4cc(C)c(=O)[nH]c4=O)C[C@@H]3OP(=O)(O)OC[C@H]3O[C@@H](n4cc(C)c(=O)[nH]c4=O)C[C@@H]3OP(=O)(O)OC[C@H]3O[C@@H](n4ccc(N)nc4=O)C[C@@H]3OP(=O)(O)OC[C@H]3O[C@@H](n4ccc(N)nc4=O)C[C@@H]3OP(=O)(O)OC[C@H]3O[C@@H](n4ccc(N)nc4=O)C[C@@H]3OP(=O)(O)O)SCCNCCCN)[C@@H](COP(=O)(O)O[C@H]3C[C@H](n4ccc(N)nc4=O)O[C@@H]3COP(=O)(O)O[C@H]3C[C@H](n4ccc(N)nc4=O)O[C@@H]3COP(=O)(O)O[C@H]3C[C@H](n4ccc(N)nc4=O)O[C@@H]3CO)O2)c(=O)[nH]c1=O | 0 | 45 | 46 | 31 | 6 | 3
7 | Cc1cn([C@H]2C[C@H](OP(=O)(O)OC[C@H]3O[C@@H](n4cc(C)c(=O)[nH]c4=O)C[C@@H]3OP(=O)(O)OC[C@H]3O[C@@H](n4cc(C)c(=O)[nH]c4=O)C[C@@H]3O[P@@](=O)(OC[C@H]3O[C@@H](n4cc(C)c(=O)[nH]c4=O)C[C@@H]3OP(=O)(O)OC[C@H]3O[C@@H](n4cc(C)c(=O)[nH]c4=O)C[C@@H]3OP(=O)(O)OC[C@H]3O[C@@H](n4cc(C)c(=O)[nH]c4=O)C[C@@H]3OP(=O)(O)OC[C@H]3O[C@@H](n4ccc(N)nc4=O)C[C@@H]3OP(=O)(O)OC[C@H]3O[C@@H](n4ccc(N)nc4=O)C[C@@H]3OP(=O)(O)OC[C@H]3O[C@@H](n4ccc(N)nc4=O)C[C@@H]3OP(=O)(O)O)SCCCN3CCNCC3)[C@@H](COP(=O)(O)O[C@H]3C[C@H](n4ccc(N)nc4=O)O[C@@H]3COP(=O)(O)O[C@H]3C[C@H](n4ccc(N)nc4=O)O[C@@H]3COP(=O)(O)O[C@H]3C[C@H](n4ccc(N)nc4=O)O[C@@H]3CO)O2)c(=O)[nH]c1=O | -1 | 45 | 45 | 27 | 2 | 3
8 | Cc1cn([C@H]2C[C@H](OP(=O)(O)OC[C@H]3O[C@@H](n4cc(C)c(=O)[nH]c4=O)C[C@@H]3OP(=O)(O)OC[C@H]3O[C@@H](n4cc(C)c(=O)[nH]c4=O)C[C@@H]3O[P@](=O)(OC[C@H]3O[C@@H](n4cc(C)c(=O)[nH]c4=O)C[C@@H]3OP(=O)(O)OC[C@H]3O[C@@H](n4cc(C)c(=O)[nH]c4=O)C[C@@H]3OP(=O)(O)OC[C@H]3O[C@@H](n4cc(C)c(=O)[nH]c4=O)C[C@@H]3OP(=O)(O)OC[C@H]3O[C@@H](n4ccc(N)nc4=O)C[C@@H]3OP(=O)(O)OC[C@H]3O[C@@H](n4ccc(N)nc4=O)C[C@@H]3OP(=O)(O)OC[C@H]3O[C@@H](n4ccc(N)nc4=O)C[C@@H]3OP(=O)(O)O)SCCCCN)[C@@H](COP(=O)(O)O[C@H]3C[C@H](n4ccc(N)nc4=O)O[C@@H]3COP(=O)(O)O[C@H]3C[C@H](n4ccc(N)nc4=O)O[C@@H]3COP(=O)(O)O[C@H]3C[C@H](n4ccc(N)nc4=O)O[C@@H]3CO)O2)c(=O)[nH]c1=O | -3 | 40 | 43 | 24 | -2 | -2
